From patent publication US20250171462A1 (NICO Therapeutics, Inc., priority 2022, published 2025)
Where two headings read alike, the source gives them in different places.

Target: T1, full-length SARM1 (FL-SARM1) (Homo sapiens, UniProt Q6SZW1)
T1 sequence (Q6SZW1 28-724): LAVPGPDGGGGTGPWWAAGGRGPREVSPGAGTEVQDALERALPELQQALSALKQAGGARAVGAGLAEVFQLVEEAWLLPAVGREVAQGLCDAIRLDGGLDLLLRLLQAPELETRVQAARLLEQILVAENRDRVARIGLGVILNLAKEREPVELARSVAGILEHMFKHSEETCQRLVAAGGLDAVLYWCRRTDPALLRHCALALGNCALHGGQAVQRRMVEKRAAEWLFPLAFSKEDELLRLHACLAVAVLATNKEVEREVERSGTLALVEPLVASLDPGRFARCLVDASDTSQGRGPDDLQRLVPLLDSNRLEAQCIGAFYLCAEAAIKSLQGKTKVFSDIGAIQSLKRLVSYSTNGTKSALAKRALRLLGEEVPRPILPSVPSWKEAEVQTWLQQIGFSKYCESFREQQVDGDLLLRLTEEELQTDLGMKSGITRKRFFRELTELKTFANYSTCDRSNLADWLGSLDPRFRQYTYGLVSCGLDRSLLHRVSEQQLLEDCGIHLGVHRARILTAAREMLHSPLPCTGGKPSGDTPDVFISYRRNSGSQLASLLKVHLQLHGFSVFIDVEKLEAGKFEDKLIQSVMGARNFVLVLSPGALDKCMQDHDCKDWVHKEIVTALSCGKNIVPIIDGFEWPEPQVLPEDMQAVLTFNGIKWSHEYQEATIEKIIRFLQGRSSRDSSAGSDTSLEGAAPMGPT
Assay: FL-SARM1 cellular lysate assay (NAD/NADH-Glo detection of remaining NAD+, NMN-activated)

[1] = Activity (IC50 class), 11 point curve
[2] = Activity (μM) (IC50), 11 point curve
[3] = read-out: Activity (IC50 class), 11 point curve

Structure (SMILES) | IC50 [1] | IC50 [2] | IC50 [3]
Cc1ccc(NC(=O)N2CC(C)C2)cc1-c1ncc(F)cn1 [Example 232, N-[3-(5-fluoropyrimidin-2-yl)-4-methylphenyl]-3-methylazetidine-1-carboxamide] | > 10 µM | 20 µM | –
Cc1ccc(NC(=O)N2C3C[C@@H](C)C[C@H]2C3)cc1-c1nccc(OC(F)F)n1 [Example 233, cis-N-[3-[4-(difluoromethoxy)pyrimidin-2-yl]-4-methylphenyl]-3-methyl-6-azabicyclo[3.1.1]heptane-6-carboxamide] | – | 0.1 µM | 0.0001 to 1 µM
CCc1ccc(-c2cc(NC(=O)N3C4C[C@@H](C)C[C@H]3C4)ccc2C)nn1 [Example 234, cis-N-[3-(6-ethylpyridazin-3-yl)-4-methylphenyl]-3-methyl-6-azabicyclo[3.1.1]heptane-6-carboxamide] | – | 0.4 µM | 0.0001 to 1 µM
Cc1ccc(NC(=O)N2[C@@H]3C[C@@H](C)C[C@H]2C3)cc1-c1cc(OC(F)F)cnn1 [Example 235, cis-N-[3-[5-(difluoromethoxy)pyridazin-3-yl]-4-methylphenyl]-3-methyl-6-azabicyclo[3.1.1]heptane-6-carboxamide] | – | 0.06 µM | 0.0001 to 1 µM
Cc1ccc(NC(=O)N2[C@@H]3C[C@@H](C)C[C@H]2C3)cc1-c1nccc(C2CC2)n1 [Example 236, cis-N-[3-(4-cyclopropylpyrimidin-2-yl)-4-methylphenyl]-3-methyl-6-azabicyclo[3.1.1]heptane-6-carboxamide] | – | 0.7 µM | 0.0001 to 1 µM
CCc1ccnc(-c2cc(NC(=O)N3C4C[C@@H](C)C[C@H]3C4)ccc2C)n1 [Example 237, cis-N-[3-(4-ethylpyrimidin-2-yl)-4-methylphenyl]-3-methyl-6-azabicyclo[3.1.1]heptane-6-carboxamide] | 1 to 10 µM | 1.1 µM | –
Cc1ccc(NC(=O)N2[C@@H]3C[C@@H](C)C[C@H]2C3)cc1-c1cncc(C#N)n1 [Example 238, cis-N-[3-(6-cyanopyrazin-2-yl)-4-methylphenyl]-3-methyl-6-azabicyclo[3.1.1]heptane-6-carboxamide] | – | 0.04 µM | 0.0001 to 1 µM
Cc1cnc(-c2cc(NC(=O)N3C4C[C@@H](C)C[C@H]3C4)c(F)cc2C)nn1 [Example 239, cis-N-[2-fluoro-4-methyl-5-(6-methyl-1,2,4-triazin-3-yl)phenyl]-3-methyl-6-azabicyclo[3.1.1]heptane-6-carboxamide] | – | 0.2 µM | 0.0001 to 1 µM
Cc1cc(F)c(NC(=O)N2[C@@H]3C[C@@H](C)C[C@H]2C3)cc1-c1nccnn1 [Example 240, cis-N-[2-fluoro-4-methyl-5-(1,2,4-triazin-3-yl)phenyl]-3-methyl-6-azabicyclo[3.1.1]heptane-6-carboxamide] | – | 0.09 µM | 0.0001 to 1 µM
Cc1cc(F)c(NC(=O)N2C3C[C@@H](C4CC4)C[C@H]2C3)cc1-c1cccnn1 [Example 241, cis-3-cyclopropyl-N-(2-fluoro-4-methyl-5-pyridazin-3-ylphenyl)-6-azabicyclo[3.1.1]heptane-6-carboxamide] | – | 0.09 µM | 0.0001 to 1 µM
Cc1ccc(-c2cc(NC(=O)N3[C@@H]4C[C@@H](C)C[C@H]3C4)ccc2C)nn1 [Example 242, cis-3-methyl-N-[4-methyl-3-(6-methylpyridazin-3-yl)phenyl]-6-azabicyclo[3.1.1]heptane-6-carboxamide] | – | 0.07 µM | 0.0001 to 1 µM
COCCOCc1ccnc(-c2cc(NC(=O)N3[C@@H]4C[C@@H](C)C[C@H]3C4)ccc2C)n1 [Example 243, cis-N-[3-[4-(2-methoxyethoxymethyl)pyrimidin-2-yl]-4-methylphenyl]-3-methyl-6-azabicyclo[3.1.1]heptane-6-carboxamide] | 1 to 10 µM | 1.1 µM | –
Cc1cc(C(F)(F)F)c(NC(=O)N2[C@@H]3C[C@@H](C)C[C@H]2C3)cc1-c1cccnn1 [Example 244, cis-3-methyl-N-[4-methyl-5-pyridazin-3-yl-2-(trifluoromethyl)phenyl]-6-azabicyclo[3.1.1]heptane-6-carboxamide] | > 10 µM | 16 µM | –
C[C@@H]1C[C@@H]2C[C@H](C1)N2C(=O)Nc1cc(-c2cccnn2)c(C(F)(F)F)cc1F [Example 245, cis-N-[2-fluoro-5-pyridazin-3-yl-4-(trifluoromethyl)phenyl]-3-methyl-6-azabicyclo[3.1.1]heptane-6-carboxamide] | – | 0.2 µM | 0.0001 to 1 µM
Cc1cc(F)c(NC(=O)N2C3CCCC2C3)cc1-c1nccnn1 [Example 246, N-[2-fluoro-4-methyl-5-(1,2,4-triazin-3-yl)phenyl]-6-azabicyclo[3.1.1]heptane-6-carboxamide] | 1 to 10 µM | 2 µM | –
Cc1cc(F)c(NC(=O)N2C3CCCC2C3)cc1-c1cc(Cl)cnn1 [Example 247, N-[5-(5-chloropyridazin-3-yl)-2-fluoro-4-methylphenyl]-6-azabicyclo[3.1.1]heptane-6-carboxamide] | – | 0.4 µM | 0.0001 to 1 µM
Cc1ccc(NC(=O)N2C3CCCC2C3)cc1-c1ncc(F)cc1F [Example 248, N-[3-(3,5-difluoropyridin-2-yl)-4-methylphenyl]-6-azabicyclo[3.1.1]heptane-6-carboxamide] | – | 0.2 µM | 0.0001 to 1 µM
COc1cnnc(-c2cc(NC(=O)N3C4CCCC3C4)c(F)cc2C)c1 [Example 249, N-[2-fluoro-5-(5-methoxypyridazin-3-yl)-4-methylphenyl]-6-azabicyclo[3.1.1]heptane-6-carboxamide] | – | 0.9 µM | 0.0001 to 1 µM
Cc1c(-c2ncc(F)cn2)cc(NC(=O)N2C3CCCC2C3)c(F)c1F [Example 250, N-[2,3-difluoro-5-(5-fluoropyrimidin-2-yl)-4-methylphenyl]-6-azabicyclo[3.1.1]heptane-6-carboxamide] | 1 to 10 µM | 1.5 µM | –
Cc1ccc(NC(=O)N2C3CCCC2C3)cc1-c1ncc(F)c(C#N)n1 [Example 251, N-[3-(4-cyano-5-fluoropyrimidin-2-yl)-4-methylphenyl]-6-azabicyclo[3.1.1]heptane-6-carboxamide] | 1 to 10 µM | 1 µM | –
Cc1ccc(NC(=O)N2C3CCCC2C3)cc1-c1ncc(Cl)cn1 [Example 252, N-[3-(5-chloropyrimidin-2-yl)-4-methylphenyl]-6-azabicyclo[3.1.1]heptane-6-carboxamide] | – | 0.5 µM | 0.0001 to 1 µM
Cc1cc(F)c(NC(=O)N2[C@@H]3C[C@@H](C)C[C@H]2C3)cc1-c1ncccn1 [Example 253, cis-N-(2-fluoro-4-methyl-5-pyrimidin-2-ylphenyl)-3-methyl-6-azabicyclo[3.1.1]heptane-6-carboxamide] | – | 0.08 µM | 0.0001 to 1 µM
Cc1cc(F)c(NC(=O)N2C3C[C@@H](C)C[C@H]2C3)cc1-c1ncc(F)cn1 [Example 254, cis-N-[2-fluoro-5-(5-fluoropyrimidin-2-yl)-4-methylphenyl]-3-methyl-6-azabicyclo[3.1.1]heptane-6-carboxamide] | – | 0.02 µM | 0.0001 to 1 µM
Cc1cc(F)c(NC(=O)N2[C@@H]3C[C@@H](C)C[C@H]2C3)cc1-c1ccccn1 [Example 255, cis-N-(2-fluoro-4-methyl-5-pyridin-2-ylphenyl)-3-methyl-6-azabicyclo[3.1.1]heptane-6-carboxamide] | – | 0.02 µM | 0.0001 to 1 µM
